Measurements reported in patent publication US11345701B1, “KRAS mutant protein inhibitors” (Jacobio Pharmaceuticals Co., Ltd., priority 2021, dated 2022).
Where two headings read alike, the source gives them in different places.

What was measured:
[1] = system: NCI-H358 cells expressing KRAS G12C mutant protein; assay: Phospho-ERK1/2(THR202/TYR204) HTRF assay; type: cell-based; conditions: 2 hours incubation, read-out: p-ERK IC50
Protocol: The NCI-H358 cells in culture medium were seeded in 96-well plates at a concentration of 40,000 cells/well and then put in a 37° C./5% CO2 cell incubator to incubate overnight. […] After 2 hours incubation in a 37° C./5% CO2 cell incubator, the assay medium in 96-well plates was removed, then 50 μL of 1× blocking reagent-supplemented lysis buffer (Cisbio) was added and the plates were incubated at 25° C. for 45 min with shaking. 10 μL of cell lysates from the 96-well plates were transferred to a 384-well plate (Greiner) containing 2.5 μL/well HTRF® pre-mixed antibodies (Cisbio 64AERPEH). Incubate 4 hours at 25° C. and then read HTRF signals on Tecan Spark multimode microplate reader. The data were analyzed using a 4-parameter logistic model to calculate IC50 values.

HIS-KRAS(G12C) = HIS-KRAS(G12C) (Homo sapiens (Human), UniProt P01116, G12C); assay: SOS1 catalyzed nucleotide exchange assay (TR-FRET); type: biochemical; conditions: GDP-loaded HIS-KRAS(G12C), 1 hour pre-incubation, TR-FRET
Chain of HIS-KRAS(G12C) (P01116 other isoform, or with tags, fused parts or gaps G12C): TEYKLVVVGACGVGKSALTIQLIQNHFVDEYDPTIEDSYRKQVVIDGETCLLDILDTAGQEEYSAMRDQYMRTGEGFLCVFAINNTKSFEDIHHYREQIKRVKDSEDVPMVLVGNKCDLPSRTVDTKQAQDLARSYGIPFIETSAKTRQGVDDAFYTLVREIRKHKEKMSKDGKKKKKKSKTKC
Protocol: TR-FRET signals were then read on Tecan Spark multimode microplate reader. […] TR-FRET ratios for each individual wells were calculated by equation: TR-FRET ratio=(Signal F515/Signal F486)*10000. Then the data were analyzed using a 4-parameter logistic model to calculate IC50 values.

[2] = Cynomolgus monkey pharmacokinetic study; type: in vivo; conditions: plasma, cynomolgus monkey; for clearance / Vd: 1 mg/kg, iv; for Vd: read-out: VSS; for AUC(0-t) / Cmax / bioavailability: 3 mg/kg, po; for AUC(0-t): read-out: AUC0-24h; for Cmax: read-out: Cmax; for bioavailability: read-out: Oral BA (F %)
Protocol: (§1) The purpose of this study was to evaluate the pharmacokinetic properties of compounds in cynomolgus monkey following single dose administration. The day before administration, monkeys were fasted overnight and free access to water. Four monkeys are needed for each compound and the four monkeys were divided into two groups, group A and group B (one male (♂) and one female (♀) in each group). Monkeys in group A were treated with a single 1 mg/kg dose of compound (iv). Monkeys in group B were treated with a single 3 mg/kg dose of compound (po). For monkeys in group A, blood samples were collected at pre-dose, and at the time point of 0.083, 0.25, 0.5, 1, 2, 4, 6, 8 and 24 h post-dose. For monkeys in group B, blood samples were collected at pre-dose, and at the time point of 0.25, 0.5, 1, 2, 4, 6, 8 and 24 h post-dose. Blood samples were placed on ice until centrifugation to obtain plasma samples. The plasma samples were stored at −80° C. until analysis. The concentration of compound in plasma samples was determined using a LC-MS/MS method.

[3] = Dog pharmacokinetic study; type: in vivo, beagle dog; conditions: plasma, beagle dog; for clearance / Vd: 1 mg/kg, iv; for Vd: read-out: VSS; for AUC(0-t) / Cmax / bioavailability: 3 mg/kg, po; for AUC(0-t): read-out: AUC0-24h; for Cmax: read-out: Cmax; for bioavailability: read-out: Oral BA (F %)
Protocol: as §1, with “beagle dog” for “cynomolgus monkey”, “dogs” for “monkeys”, “beagle dogs were” for “monkeys are”, “male(♂)” for “male (♂)”, “Dogs” for “Monkeys”

[4] = Mouse pharmacokinetic study; type: in vivo, Balb/c mouse; conditions: plasma, Balb/c mouse (female)
Protocol: The purpose of this study was to evaluate the pharmacokinetic properties of compounds in Balb/c mouse (♀) following single dose administration. The day before administration, mice were fasted overnight and free access to water. Six mice were needed for each compound and the six mice were divided into two groups (n=3/group), group A and group B. Mice in group A were treated with a single 3 mg/kg dose of compound (iv). Mice in group B were treated with a single 10 mg/kg dose of compound (po). For each mouse in group A, blood samples were collected at pre-dose, and at the time point of 0.083, 0.25, 0.5, 1, 2, 4, 6, 8 and 24 h post-dose. For each mouse in group B, blood samples were collected at pre-dose, and at the time point of 0.25, 0.5, 1, 2, 3, 4, 6, 8 and 24 h post-dose. Blood samples were placed on ice until centrifugation to obtain plasma samples. The plasma samples were stored at −80° C. until analysis. The concentration of compound in plasma samples was determined using a LC-MS/MS method.

In the case of `C=CC(=O)N1CCN(c2nc(=O)n(-c3c(C)ccnc3C(C)C)c3nc(-c4c(N)c(F)c(F)c(F)c4F)c(F)cc23)[C@@H](C)C1` (atropisomer, axis not shown; (P)) [Compound 2-2, (P)-4-((S)-4-acryloyl-2-methylpiperazin-1-yl)-7-(2-amino-3,4,5,6-tetrafluorophenyl)-6-fluoro-1-(2-isopropyl-4-methylpyridin-3-yl)pyrido[2,3-d]pyrimidin-2(1H)-one], the IC50 [1] is reported as 681 nM and the IC50 (HIS-KRAS(G12C)) is reported as 61.8 nM.

`C=CC(=O)N1CCN(c2nc(=O)n(-c3c(C)ccnc3C(C)C)c3nc(-c4c(F)c(F)c(F)c(N)c4Cl)c(F)cc23)[C@@H](C)C1` (single isomer, unassigned) [Compound 1-1] gave an IC50 ([1]; Homo sapiens, NCI-H358, 2 h) of 16.6 nM and an IC50 (HIS-KRAS(G12C)) of 4.08 nM.

`C=CC(=O)N1CCN(c2nc(=O)n(-c3c(C)ccnc3C(C)C)c3nc(-c4c(F)c(F)c(F)c(N)c4Cl)c(F)cc23)[C@@H](C)C1` (single isomer, unassigned) [Compound 1-2] showed an IC50 (HIS-KRAS(G12C)) of 121 nM.

For `C=CC(=O)N1CCN(c2nc(=O)n(-c3c(C)ccnc3C(C)C)c3nc(-c4c(N)c(F)c(F)c(F)c4F)c(F)cc23)CC1` (single isomer, unassigned) [Compound 3-1, 4-(4-acryloylpiperazin-1-yl)-7-(2-amino-3,4,5,6-tetrafluorophenyl)-6-fluoro-1-(2-isopropyl-4-methylpyridin-3-yl)pyrido[2,3-d]pyrimidin-2(1H)-one], the IC50 ([1]; Homo sapiens, NCI-H358, 2 h) was 25.4 nM and the IC50 (HIS-KRAS(G12C)) was 3.14 nM.

`C=CC(=O)N1CCN(c2nc(=O)n(-c3c(C)ccnc3C(C)C)c3nc(-c4c(N)c(F)c(F)c(F)c4F)c(F)cc23)CC1` (single isomer, unassigned) [Compound 3-2, 4-(4-acryloylpiperazin-1-yl)-7-(2-amino-3,4,5,6-tetrafluorophenyl)-6-fluoro-1-(2-isopropyl-4-methylpyridin-3-yl)pyrido[2,3-d]pyrimidin-2(1H)-one] gave an IC50 (HIS-KRAS(G12C)) of 234 nM.

`C=CC(=O)N1CCN(c2nc(=O)n(-c3c(C)ccnc3C(C)C)c3nc(-c4c(N)c(F)c(F)c(F)c4F)c(F)cc23)C[C@H]1C` (single isomer, unassigned) [Compound 4-1] gave an IC50 ([1]; Homo sapiens, NCI-H358, 2 h) of 40.9 nM and an IC50 (HIS-KRAS(G12C)) of 3.31 nM.

`C=CC(=O)N1CCN(c2nc(=O)n(-c3c(C)ccnc3C(C)C)c3nc(-c4c(N)c(F)c(F)c(F)c4F)c(F)cc23)C[C@H]1C` (single isomer, unassigned) [Compound 4-2] showed an IC50 (HIS-KRAS(G12C)) of 278 nM.

Compound `C=CC(=O)N1[C@H](C)CN(c2nc(=O)n(-c3c(C)ccnc3C(C)C)c3nc(-c4c(N)c(F)c(F)c(F)c4F)c(F)cc23)C[C@@H]1C` (single isomer, unassigned) [Compound 5-1] has an IC50 [1] of 17.8 nM and an IC50 (HIS-KRAS(G12C)) of 3.3 nM.

With `C=CC(=O)N1[C@H](C)CN(c2nc(=O)n(-c3c(C)ccnc3C(C)C)c3nc(-c4c(N)c(F)c(F)c(F)c4F)c(F)cc23)C[C@@H]1C` (single isomer, unassigned) [Compound 5-2] the IC50 [1] was 774 nM and the IC50 (HIS-KRAS(G12C)) was 96.1 nM.

`C=CC(=O)N1[C@H](C)CN(c2nc(=O)n(-c3c(C)ccnc3C(C)C)c3nc(-c4c(F)c(F)c(F)c(N)c4Cl)c(F)cc23)C[C@@H]1C` (single isomer, unassigned) [Compound 7-1] showed an IC50 ([1]; Homo sapiens, NCI-H358, 2 h) of 36.7 nM and an IC50 (HIS-KRAS(G12C)) of 6.54 nM.

In the case of `C=CC(=O)N1[C@H](C)CN(c2nc(=O)n(-c3c(C)ccnc3C(C)C)c3nc(-c4c(F)c(F)c(F)c(N)c4Cl)c(F)cc23)C[C@@H]1C` (single isomer, unassigned) [Compound 7-2], the IC50 (HIS-KRAS(G12C)) is reported as 307 nM.

In the case of `C=CC(=O)N1CCN(c2nc(=O)n(-c3c(C)ccnc3C(C)C)c3nc(-c4c(O)cccc4F)c(F)cc23)[C@@H](C)C1` [Amg-510, reference compound], the clearance ([2]; female) is reported as 84.3 mL/min/kg, the Vd ([2]; female) is reported as 2.01 L/kg and the AUC(0-t) ([2]; female) is reported as 241 ng·h/mL. It also gave a Cmax ([2]; female) of 100 ng/mL, a bioavailability ([2]; female) of 41.3% and a clearance ([2]; male) of 25.5 mL/min/kg. It also gave a Vd ([2]; male) of 0.775 L/kg, an AUC(0-t) ([2]; male) of 214 ng·h/mL and a Cmax ([2]; male) of 133 ng/mL. For the same compound, the bioavailability ([2]; male) was 11%, the clearance ([3]; female) was 20.1 mL/min/kg and the Vd ([3]; female) was 0.543 L/kg. The AUC(0-t) ([3]; female) was 404 ng·h/mL, the Cmax ([3]; female) was 450 ng/mL and the bioavailability ([3]; female) was 16.4%. It also gave a clearance ([3]; male) of 21.1 mL/min/kg, a Vd ([3]; male) of 0.535 L/kg and an AUC(0-t) ([3]; male) of 1990 ng·h/mL. The Cmax ([3]; male) was 1840 ng/mL, the bioavailability ([3]; male) was 84.4% and the clearance ([4]; 3 mg/kg, iv) was 40.5 mL/min/kg. It also gave a Vd ([4]; 3 mg/kg, iv, read-out: Vss) of 1.64 L/kg, an AUC(0-t) ([4]; 10 mg/kg, po, read-out: AUC0-24 h) of 1810 ng·h/mL and a Cmax ([4]; 10 mg/kg, po, read-out: Cmax) of 1600 ng/mL. For the same compound, the bioavailability ([4]; 10 mg/kg, po, read-out: Oral BA (F %)) was 43.9%.

Compound `C=CC(=O)N1CCN(c2nc(=O)n(-c3c(C)ccnc3C(C)C)c3nc(-c4c(N)c(F)c(F)c(F)c4F)c(F)cc23)CC1` [Compound 3, 4-(4-acryloylpiperazin-1-yl)-7-(2-amino-3,4,5,6-tetrafluorophenyl)-6-fluoro-1-(2-isopropyl-4-methylpyridin-3-yl)pyrido[2,3-d]pyrimidin-2(1H)-one] has an IC50 (HIS-KRAS(G12C)) of 5.51 nM.

For `C=CC(=O)N1CCN(c2nc(=O)n(-c3c(C)ccnc3C(C)C)c3nc(-c4c(N)c(F)c(F)c(F)c4F)c(F)cc23)C[C@H]1C` [Compound 4, 4-((R)-4-acryloyl-3-methylpiperazin-1-yl)-7-(2-amino-3,4,5,6-tetrafluorophenyl)-6-fluoro-1-(2-isopropyl-4-methylpyridin-3-yl)pyrido[2,3-d]pyrimidin-2(1H)-one], the IC50 (HIS-KRAS(G12C)) was 10.3 nM.

Compound `C=CC(=O)N1CCN(c2nc(=O)n(-c3c(C)ccnc3C(C)C)c3nc(-c4c(F)c(F)c(F)c(N)c4Cl)c(F)cc23)C[C@H]1C` [Compound 6, 4-((R)-4-acryloyl-3-methylpiperazin-1-yl)-7-(3-amino-2-chloro-4,5,6-trifluorophenyl)-6-fluoro-1-(2-isopropyl-4-methylpyridin-3-yl)pyrido[2,3-d]pyrimidin-2(1H)-one] has an IC50 (HIS-KRAS(G12C)) of 40.1 nM.

Work on `C=CC(=O)N1[C@H](C)CN(c2nc(=O)n(-c3c(C)ccnc3C(C)C)c3nc(-c4c(F)c(F)c(F)c(N)c4Cl)c(F)cc23)C[C@@H]1C` [Compound 7, 4-((3S,5R)-4-acryloyl-3,5-dimethylpiperazin-1-yl)-7-(3-amino-2-chloro-4,5,6-trifluorophenyl)-6-fluoro-1-(2-isopropyl-4-methylpyridin-3-yl)pyrido[2,3-d]pyrimidin-2(1H)-one] yielded an IC50 (HIS-KRAS(G12C)) of 17.5 nM.
